Source: US20260274832A1, “COMPOUNDS AND THEIR USE IN TREATING CANCER” (ASTRAZENECA AB, priority 2023, published 2026)

Legend:
[1] = biological target: T1, AR (L702H) in LNCaP cells (Homo sapiens, UniProt P10275, L702H/T878A); test: LNCaP Androgen Receptor L702H Imaging Assay (LNCaP cells engineered by CRISPR/Cas9); assay type: cell-based; details: LNCaP cells with AR L702H mutation, 24 h incubation; for DC50: concentration giving 50% of maximum degradation of AR (L702H) per curve fit; for Dmax: LNCaP, maximum degradation observed, normalized as % of positive control
T1 construct: engineered to introduce the mutation L702H into the AR gene using CRISPR/Cas9; endogenous in cells; host or cells: LNCaP cells edited by CRISPR/Cas9 at the AR gene
Method in brief: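 CRISPR-engineered LNCaP cells carrying AR L702H were treated 24 h at 37 °C with a 12-point compound dose response (0.3% DMSO), then fixed and immunostained for AR with DRAQ5 nuclear counterstain. Nuclear AR was quantified by imaging, normalized to positive control; DC50 and Dmax came from Hill or bell-shaped fits.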

[2] = biological target: T2, AR (AR-full length) in LNCaP cells (Homo sapiens, UniProt P10275, T878A); test: LNCaP Androgen Receptor Imaging Assay (immunofluorescence of endogenous nuclear AR); assay type: cell-based; details: 24 h incubation; for DC50: concentration giving 50% of maximum degradation of AR per curve fit, single experiment or average of two or more; for Dmax: LNCaP, maximum degradation observed, normalized as % of positive control (prior art AR PROTAC at 3 μM)
T2 construct: the prostate cancer cell line LNCaP (expressing AR-full length); endogenous in cells; host or cells: LNCaP
Method in brief: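 LNCaP cells (12,000/well) received a 12-point compound dose series (0.3% DMSO) for 24 h at 37° C., then were PFA-fixed and stained for AR (AR441) and nuclei (DRAQ5). Nuclear AR was quantified by imaging, normalized to a 3 μM AR PROTAC control; DC50 and Dmax came from Hill/bell curve fits.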

T1 sequence (P10275 whole entry L702H/T878A): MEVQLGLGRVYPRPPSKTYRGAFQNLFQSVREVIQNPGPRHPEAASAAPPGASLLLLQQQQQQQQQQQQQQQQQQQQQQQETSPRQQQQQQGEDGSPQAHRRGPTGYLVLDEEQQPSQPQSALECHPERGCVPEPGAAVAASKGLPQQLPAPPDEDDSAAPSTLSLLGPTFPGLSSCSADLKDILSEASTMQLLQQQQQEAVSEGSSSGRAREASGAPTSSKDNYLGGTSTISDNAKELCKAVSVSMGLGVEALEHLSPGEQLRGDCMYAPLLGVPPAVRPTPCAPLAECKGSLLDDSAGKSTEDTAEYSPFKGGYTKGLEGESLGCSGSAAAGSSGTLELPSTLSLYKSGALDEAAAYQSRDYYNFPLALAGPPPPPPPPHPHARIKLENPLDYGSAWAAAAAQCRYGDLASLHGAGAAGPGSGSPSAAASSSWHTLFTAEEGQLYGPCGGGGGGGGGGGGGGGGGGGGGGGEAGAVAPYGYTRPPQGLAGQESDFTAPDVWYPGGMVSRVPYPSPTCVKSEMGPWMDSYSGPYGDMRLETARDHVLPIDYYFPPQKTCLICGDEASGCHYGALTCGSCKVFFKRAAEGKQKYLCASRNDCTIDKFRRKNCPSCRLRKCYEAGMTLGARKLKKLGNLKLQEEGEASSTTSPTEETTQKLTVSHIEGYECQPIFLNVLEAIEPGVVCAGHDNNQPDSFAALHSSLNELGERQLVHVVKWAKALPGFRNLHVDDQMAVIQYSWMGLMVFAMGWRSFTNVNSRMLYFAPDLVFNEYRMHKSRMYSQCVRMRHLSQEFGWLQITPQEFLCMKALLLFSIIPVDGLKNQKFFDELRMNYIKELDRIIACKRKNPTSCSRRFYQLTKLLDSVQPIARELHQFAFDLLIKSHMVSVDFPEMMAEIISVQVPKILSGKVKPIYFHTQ
T1 sequence (Q96SW2 whole entry partner): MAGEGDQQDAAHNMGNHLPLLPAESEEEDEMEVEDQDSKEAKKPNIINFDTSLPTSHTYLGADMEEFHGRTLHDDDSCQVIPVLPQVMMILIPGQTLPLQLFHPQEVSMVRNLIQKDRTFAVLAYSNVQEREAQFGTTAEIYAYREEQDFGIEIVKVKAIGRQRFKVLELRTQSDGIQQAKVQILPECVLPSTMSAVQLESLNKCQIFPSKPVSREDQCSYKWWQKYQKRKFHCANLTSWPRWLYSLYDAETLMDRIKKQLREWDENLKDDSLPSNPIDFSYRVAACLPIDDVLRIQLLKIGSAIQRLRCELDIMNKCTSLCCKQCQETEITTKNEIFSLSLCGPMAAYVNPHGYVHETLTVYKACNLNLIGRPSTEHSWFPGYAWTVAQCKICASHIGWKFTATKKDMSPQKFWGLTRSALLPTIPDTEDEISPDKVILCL
T2 sequence (P10275 whole entry T878A): as the sequence (P10275 whole entry L702H/T878A) above, with H702L counted along it
T2 sequence (Q96SW2 whole entry partner): as the sequence (Q96SW2 whole entry partner) above

DC50 [1]	Dmax [1]	DC50 [2]	Dmax [2]	SMILES
52 nM	97%	36 nM	77%	N#Cc1c[nH]c2c(N3CCC[C@H](c4ccc(N5CCC(CN6CCN(c7cc8c(cc7F)C(=O)N(C7CCC(=O)NC7=O)C8=O)CC6)CC5)cc4)C3)ccc(Cl)c12 (stereo partly drawn) [Example 54, 4-Chloro-7-[(3R)-3-{4-[4-({4-[2-(2,6-dioxopiperidin-3-yl)-6-fluoro-1,3-dioxo-2,3-dihydro-1H-isoindol-5-yl]piperazin-1-yl}methyl)piperidin-1-yl]phenyl}piperidin-1-yl]-1H-indole-3-carbonitrile]
34 nM	103%	33 nM	99%	N#Cc1c[nH]c2c(N3CCC(c4ccc(N5CCC(CN6CCN(c7ccc8c(c7)C(=O)N(C7CCC(=O)NC7=O)C8=O)CC6)CC5)cc4)CC3)ccc(Cl)c12 (stereo not drawn) [Example 55, 4-Chloro-7-(4-{4-[4-({4-[2-(2,6-dioxopiperidin-3-yl)-1,3-dioxo-2,3-dihydro-1H-isoindol-5-yl]piperazin-1-yl}methyl)piperidin-1-yl]phenyl}piperidin-1-yl)-1H-indole-3-carbonitrile]
31 nM	79%	18 nM	87%	N#Cc1c[nH]c2c(N3CCC(c4ccc(OCCCCN5CCN(c6ccc7c(c6)CN(C6CCC(=O)NC6=O)C7=O)CC5)cc4)CC3)cccc12 (stereo not drawn) [Example 57]
47 nM	95%	51 nM	88%	N#Cc1c[nH]c2c(N3CCC(c4ccc(N5CCC(CN6CCC(n7ccc8c(N9CCC(=O)NC9=O)cccc87)CC6)CC5)cc4)CC3)cccc12 [Example 59, 7-(4-{4-[4-({4-[4-(2,4-Dioxo-1,3-diazinan-1-yl)-1H-indol-1-yl]piperidin-1-yl}methyl)piperidin-1-yl]phenyl}piperidin-1-yl)-1H-indole-3-carbonitrile]
23 nM	57%	5 nM	93%	COc1cc(N2CCN(CC3CCN(c4ccc(C5CCN(c6ccc(Cl)c7c(C#N)c[nH]c67)CC5)nc4)CC3)CC2)cc2c1C(=O)N(C1CCC(=O)NC1=O)C2 (stereo not drawn) [Example 60, 4-Chloro-7-(4-{5-[4-({4-[2-(2,6-dioxopiperidin-3-yl)-7-methoxy-1-oxo-2,3-dihydro-1H-isoindol-5-yl]piperazin-1-yl}methyl)piperidin-1-yl]pyridin-2-yl}piperidin-1-yl)-1H-indole-3-carbonitrile]
25 nM	65%	6 nM	94%	COc1nc(N2CCN(CC3CCN(c4ccc(C5CCN(c6ccc(Cl)c7c(C#N)c[nH]c67)CC5)nc4)CC3)CC2)cc2c1C(=O)N(C1CCC(=O)NC1=O)C2 (stereo not drawn) [Example 61, 4-Chloro-7-(4-{5-[4-({4-[2-(2,6-dioxopiperidin-3-yl)-4-methoxy-3-oxo-2,3-dihydro-1H-pyrrolo[3,4-c]pyridin-6-yl]piperazin-1-yl}methyl)piperidin-1-yl]pyridin-2-yl}piperidin-1-yl)-1H-indole-3-carbonitrile]
80 nM	71%	7 nM	99%	N#Cc1c[nH]c2c(N3CCC(c4ccc(N5CCC(CN6CCC(n7ccc8c(N9CCC(=O)NC9=O)cccc87)CC6)CC5)cn4)CC3)ccc(Cl)c12 [Example 62, 4-Chloro-7-(4-{5-[4-({4-[4-(2,4-dioxo-1,3-diazinan-1-yl)-1H-indol-1-yl]piperidin-1-yl}methyl)piperidin-1-yl]pyridin-2-yl}piperidin-1-yl)-1H-indole-3-carbonitrile]
16 nM	63%	6 nM	94%	N#Cc1c[nH]c2c(N3CCC(c4ccc(N5CCC(CN6CCC(n7ccc8c(N9CCC(=O)NC9=O)cccc87)CC6)CC5)nn4)CC3)ccc(Cl)c12 [Example 63, 4-Chloro-7-(4-{6-[4-({4-[4-(2,4-dioxo-1,3-diazinan-1-yl)-1H-indol-1-yl]piperidin-1-yl}methyl)piperidin-1-yl]pyridazin-3-yl}piperidin-1-yl)-1H-indole-3-carbonitrile]
8 nM	56%	5 nM	83%	N#Cc1c[nH]c2c(N3CCC(c4ccc(N5CCC(CN6CCN(c7ccc8c(c7)CN(C7CCC(=O)NC7=O)C8=O)CC6)CC5)nn4)CC3)ccc(Cl)c12 (stereo not drawn) [Example 64, 4-Chloro-7-(4-{6-[4-({4-[2-(2,6-dioxopiperidin-3-yl)-1-oxo-2,3-dihydro-1H-isoindol-5-yl]piperazin-1-yl}methyl)piperidin-1-yl]pyridazin-3-yl}piperidin-1-yl)-1H-indole-3-carbonitrile]
14 nM	87%	4 nM	98%	N#Cc1c[nH]c2c(N3CCC(c4cnc(N5CCC(CN6CCC(n7ccc8c(N9CCC(=O)NC9=O)cccc87)CC6)CC5)cn4)CC3)ccc(Cl)c12 [Example 67]
21 nM	84%	6 nM	97%	N#Cc1c[nH]c2c(N3CCC(c4cnc(N5CCC(CN6CCN(c7ccc8c(c7)CN(C7CCC(=O)NC7=O)C8=O)CC6)CC5)cn4)CC3)ccc(Cl)c12 (stereo not drawn) [Example 68, 4-Chloro-7-(4-{5-[4-({4-[2-(2,6-dioxopiperidin-3-yl)-1-oxo-2,3-dihydro-1H-isoindol-5-yl]piperazin-1-yl}methyl)piperidin-1-yl]pyrazin-2-yl}piperidin-1-yl)-1H-indole-3-carbonitrile]
5 nM	94%	9 nM	92%	Cc1ccc(N2CCC(c3ccc(N4CCC(CN5CCN(Cc6cccc7c6n(C)c(=O)n7C6CCC(=O)NC6=O)CC5)CC4)cc3)CC2)c2[nH]cc(C#N)c12 (stereo not drawn) [Example 69, 7-[4-(4-{4-[(4-{[1-(2,6-Dioxopiperidin-3-yl)-3-methyl-2-oxo-2,3-dihydro-1H-benzimidazol-4-yl]methyl}piperazin-1-yl)methyl]piperidin-1-yl}phenyl)piperidin-1-yl]-4-methyl-1H-indole-3-carbonitrile]
9 nM	101%	9 nM	97%	Cn1c(=O)n(C2CCC(=O)NC2=O)c2cccc(CN3CCN(CC4CCN(c5ccc(C6CCN(c7ccc(Cl)c8c(C#N)c[nH]c78)CC6)cc5)CC4)CC3)c21 (stereo not drawn) [Example 70, 4-Chloro-7-[4-(4-{4-[(4-{[1-(2,6-dioxopiperidin-3-yl)-3-methyl-2-oxo-2,3-dihydro-1H-benzimidazol-4-yl]methyl}piperazin-1-yl)methyl]piperidin-1-yl}phenyl)piperidin-1-yl]-1H-indole-3-carbonitrile]
7 nM	94%	7 nM	84%	Cn1c(=O)n(C2CCC(=O)NC2=O)c2cccc(CN3CCN(CC4CCN(c5ccc(C6CCN(c7ccc(F)c8c(C#N)c[nH]c78)CC6)cc5)CC4)CC3)c21 (stereo not drawn) [Example 71, 7-[4-(4-{4-[(4-{[1-(2,6-Dioxopiperidin-3-yl)-3-methyl-2-oxo-2,3-dihydro-1H-benzimidazol-4-yl]methyl}piperazin-1-yl)methyl]piperidin-1-yl}phenyl)piperidin-1-yl]-4-fluoro-1H-indole-3-carbonitrile]
21 nM	92%	14 nM	91%	Cn1c(=O)n(C2CCC(=O)NC2=O)c2cccc(N3CCN(CC4CCN(c5ccc(C6CCN(c7ccc(Cl)c8c(C#N)c[nH]c78)CC6)cc5)CC4)CC3)c21 (stereo not drawn) [Example 72, 4-Chloro-7-(4-{4-[4-({4-[1-(2,6-dioxopiperidin-3-yl)-3-methyl-2-oxo-2,3-dihydro-1H-benzimidazol-4-yl]piperazin-1-yl}methyl)piperidin-1-yl]phenyl}piperidin-1-yl)-1H-indole-3-carbonitrile]
13 nM	90%	7 nM	93%	Cn1c(=O)n(C2CCC(=O)NC2=O)c2cccc(CN3CCN(CC4CCN(c5ccc([C@@H]6CCCN(c7ccc(Cl)c8c(C#N)c[nH]c78)C6)cc5)CC4)CC3)c21 (stereo partly drawn) [Example 73, 4-Chloro-7-[(3S)-3-(4-{4-[(4-{[1-(2,6-dioxopiperidin-3-yl)-3-methyl-2-oxo-2,3-dihydro-1H-benzimidazol-4-yl]methyl}piperazin-1-yl)methyl]piperidin-1-yl}phenyl)piperidin-1-yl]-1H-indole-3-carbonitrile]

SMILES	DC50 [1]	Dmax [1]	DC50 [2]	Dmax [2]
Cc1ccc(N2CCC(c3ccc(OCCCCN4CCN(c5ccc6c(c5)C(=O)N(C5CCC(=O)NC5=O)C6=O)CC4)cc3)CC2)c2[nH]cc(C#N)c12 (stereo not drawn) [Example 56, 7-{4-[4-(4-{4-[2-(2,6-Dioxopiperidin-3-yl)-1,3-dioxo-2,3-dihydro-1H-isoindol-5-yl]piperazin-1-yl}butoxy)phenyl]piperidin-1-yl}-4-methyl-1H-indole-3-carbonitrile]	357 nM	94%	61 nM	101%
N#Cc1c[nH]c2c(N3CCC(c4ccc(OCCCCN5CCC(n6ccc7c(N8CCC(=O)NC8=O)cccc76)CC5)cc4)CC3)cccc12 [Example 58, 7-{4-[4-(4-{4-[4-(2,4-Dioxo-1,3-diazinan-1-yl)-1H-indol-1-yl]piperidin-1-yl}butoxy)phenyl]piperidin-1-yl}-1H-indole-3-carbonitrile]	114 nM	78%	13 nM	96%
